According to US8044053B2, “Sulfonamide substituted pyrazoline compounds, their preparation and use as CB1 modulators” (Laboratories del Dr. Esteve, S.A., priority 2006, dated 2011):

Experiments:
CB1-receptor [1] = target: CB1-receptor (UniProt P20272); test: In-vitro determination of affinity (binding) to CB1-receptors, radioligand [3H]-CP55940; parameters: % inh; 10^−7 M; compound at 10^−7 M; species or system human or rat; settings: compound at 10^−7 M
Protocol: (§1) I. In-Vitro Determination of Affinity to CB1/CB2-Receptors
(§2) The in-vitro determination of the affinity of the inventive substituted pyrazoline compounds to CB1/CB2-Rezeptors is carried out as described in the publication of Ruth A. Ross, Heather C. Brockie et al., “Agonist-inverse agonist characterisation at CB1 and CB2 cannabinoid receptors of L-759633, L759656 and AM630”, British Journal of Pharmacology, 126, 665-672, (1999), whereby the transfected human CB1 and CB2 receptors of Receptor Biology, Inc. are used. The radioligand used for both receptors is [^3H]-CP55940. The respective parts of the description is hereby incorporated by reference and forms part of the present disclosure.
(§3) Rat Cerebellum CB1 Binding
(§4) Binding affinity to CB1 receptor was evaluated according to a modification of the method described by Govaerts et al., Eur J Pharmac Sci 23, 233-243 (2004). The respective parts of the description is hereby incorporated by reference and forms part of the present disclosure.
(§5) Briefly, cerebellum from male wistar rats (250-300 g) were carefully dissected on ice and homogenates were prepared with Potter-Helveheim in a cold 50 mM Tris-HCl solution containing 5 mM MgCl2, 1 mM EDTA and 0.25 M sucrose, pH 7.4. The suspension was centrifuged at 1,000×g for 5 minutes. The supernatants were collected and centrifuged 50,000×g for 15 minutes. The resulting pellets were then resuspended in Tris-HCl buffer without sucrose, homogenised and incubated for 15 min at 37° C. in an orbital shaker bath and centrifuged again at 50,000×g for 15 min. Pellets were weighted, resuspended in Tris-HCl buffer without sucrose, homogenised with Ultraturrax at 13,500 rpm for 3×5 seconds and alicuoted in 0.9 ml volumes in Eppendorf tubes. Alicuotes were centrifuged at 20,800×g for 5 minutes, supernatants discarded and pellets were frozen at −80° C. until use. Total protein concentration was determined using the Bio-Rad Lowry method based kit. Competitive binding experiments were performed in presence of 1 nM [^3H]-CP 55,940 in siliconised glass tubes containing 100 μg protein/tube resuspended in 1 ml final volume of 50 mM Tris-HCl, 5 mM MgCl2, 1 mM EDTA, 0.5% (w/v) bovine serum albumin, pH 7.4. Compounds were present at various concentrations and the non specific binding was determined in the presence of 10 μM HU-210. After 1 hour incubation at 30° C., the suspension was rapidly filtered through 0.5% PEI pre-treated GF/B fiber filters on a 96-well harvester and washed 3 times with 3 ml ice-cold binding buffer without bovine serum albumin. Radioactivity on filters was measured with Wallac Winspectral 1414 counter by liquid scintillation in 6 ml Ecoscint H (National Diagnostics, U.K.). Assays were made in triplicates.
(§6) Binding data were analysed by non-linear regression with the software GraphPad Prism Version 3.03.
(§7) The binding of the pyrazoline compounds of general formulae I, Ia and Ib to CB1-receptors was determined according to the method described in the section Pharmacological Methods, Part I.

CB1-receptor [2] = target: CB1-receptor (UniProt P20272); test: as above; parameters: IC50; Ki; species or system human or rat; settings: Pharmacological Methods Part I
Protocol: as §1, §2, §3, §4, §5, §6, §7

SMILES	% inh. 10^−7 M (CB1-receptor [1]) [%]	IC50 (CB1-receptor [2]) [nM]	Ki (CB1-receptor [2]) [nM]
O=S(=O)(NCC1=NN(c2ccc(Cl)cc2Cl)C(c2ccc(Cl)cc2)C1)c1cccc(C(F)(F)F)c1 (stereo not shown) [Example 18, N-[5-(4-Chloro-phenyl)-1-(2,4-dichloro-phenyl)-4,5-dihydro-1H-pyrazol-3-ylmethyl]-3-trifluoromethyl-benzenesulfonamide]	26.1	140	–
O=S(=O)(NCC1=NN(c2ccc(Cl)cc2Cl)C(c2ccc(Cl)cc2)C1)C1=C(Cl)NC2SC=CN12 (stereo not shown) [Example 32, 6-Chloro-7,7a-dihydro-imidazo[2,1-b]thiazole-5-sulfonic acid [5-(4-chloro-phenyl)-1-(2,4-dichloro-phenyl)-4,5-dihydro-1H-pyrazol-3-ylmethyl]-amide]	20.0	121	–
CC1(C)C2CCC1(CS(=O)(=O)NCC1=NN(c3ccc(Cl)cc3Cl)C(c3ccc(Cl)cc3)C1)C(=O)C2 (stereo not shown) [Example 7, N-[5-(4-Chloro-phenyl)-1-(2,4-dichloro-phenyl)-4,5-dihydro-1H-pyrazol-3-ylmethyl]-C-(7,7-dimethyl-2-oxo-bicyclo[2.2.1]hept-1-yl)-methanesulfonamide]	11.9	184	–
Cc1ccc(C)c(S(=O)(=O)NCC2=NN(c3ccc(Cl)cc3Cl)C(c3ccc(Cl)cc3)C2)c1 (stereo not shown) [Example 44, N-[5-(4-Chloro-phenyl)-1-(2,4-dichloro-phenyl)-4,5-dihydro-1H-pyrazol-3-ylmethyl]-2,5-dimethyl-benzenesulfonamide]	54.1	15	7.3
N#Cc1cccc(S(=O)(=O)NCC2=NN(c3ccc(Cl)cc3Cl)C(c3ccc(Cl)cc3)C2)c1 (stereo not shown) [Example 10, N-((5-(4-chlorophenyl)-1-(2,4-dichlorophenyl)-4,5-dihydro-1H-pyrazol-3-yl)methyl)-3-cyanobenzenesulfonamid]	48.6	70	–
O=S(=O)(Cc1ccccc1)NCC1=NN(c2ccc(Cl)cc2Cl)C(c2ccc(Cl)cc2)C1 (stereo not shown) [Example 12, N-[5-(4-Chloro-phenyl)-1-(2,4-dichloro-phenyl)-4,5-dihydro-1H-pyrazol-3-ylmethyl]-C-phenyl-methanesulfonamide]	39.4	130	–
O=S(=O)(NCC1=NN(c2ccc(Cl)cc2Cl)C(c2ccc(Cl)cc2)C1)c1ccccc1Cl (stereo not shown) [Example 23, 2-Chloro-N-[5-(4-chloro-phenyl)-1-(2,4-dichloro-phenyl)-4,5-dihydro-1H-pyrazol-3-ylmethyl]-benzenesulfonamide]	54.9	183	–
Cc1ccc(F)cc1S(=O)(=O)NCC1=NN(c2ccc(Cl)cc2Cl)C(c2ccc(Cl)cc2)C1 (stereo not shown) [Example 38, N-[5-(4-Chloro-phenyl)-1-(2,4-dichloro-phenyl)-4,5-dihydro-1H-pyrazol-3-ylmethyl]-5-fluoro-2-methyl-benzenesulfonamide]	74.0	4.4	–
CCS(=O)(=O)NCC1=NN(c2ccc(Cl)cc2Cl)C(c2ccc(Cl)cc2)C1 (stereo not shown) [Example 14, Ethanesulfonic acid [5-(4-chloro-phenyl)-1-(2,4-dichloro-phenyl)-4,5-dihydro-1H-pyrazol-3-ylmethyl]-amide]	76.6	458	–
CCCS(=O)(=O)NCC1=NN(c2ccc(Cl)cc2Cl)C(c2ccc(Cl)cc2)C1 (stereo not shown) [Example 21, Propane-1-sulfonic acid [5-(4-chloro-phenyl)-1-(2,4-dichloro-phenyl)-4,5-dihydro-1H-pyrazol-3-ylmethyl]-amide]	80.6	263	–
Cc1cccc(Cl)c1S(=O)(=O)NCC1=NN(c2ccc(Cl)cc2Cl)C(c2ccc(Cl)cc2)C1 (stereo not shown) [Example 34, 2-Chloro-N-[5-(4-chloro-phenyl)-1-(2,4-dichloro-phenyl)-4,5-dihydro-1H-pyrazol-3-ylmethyl]-6-methyl-benzenesulfonamide]	53.8	14.1	–
O=S(=O)(NCC1=NN(c2ccc(Cl)cc2Cl)C(c2ccc(Cl)cc2)C1)c1ccsc1 (stereo not shown) [Example 9, Thiophene-3-sulfonic acid [5-(4-chloro-phenyl)-1-(2,4-dichloro-phenyl)-4,5-dihydro-1H-pyrazol-3-ylmethyl]-amide]	54.3	67.7	30.6
Cc1cc(S(=O)(=O)NCC2=NN(c3ccc(Cl)cc3Cl)C(c3ccc(Cl)cc3)C2)c(C)cc1Cl (stereo not shown) [Example 39, 4-Chloro-N-[5-(4-chloro-phenyl)-1-(2,4-dichloro-phenyl)-4,5-dihydro-1H-pyrazol-3-ylmethyl]-2,5-dimethyl-benzenesulfonamide]	53.2	20.6	–
